For series [1], the system named is subjects with Type-2 Diabetes Mellitus (T2DM). Briefly: Oral glucose tolerance test (OGTT): serum glucose pharmacodynamic response. It counts as in vivo, human. Conditions: baseline corrected, after 75-gram OGTT 30 min post-dose, Days 5, 10, 15. As to the method: (§1) On Days 5, 10 and 15, a 75-gram glucose solution (oral glucose tolerance test, OGTT) was administered 30 min post-drug administration. No breakfast was provided.
(§2) Pharmacodynamic (PD) responses, i.e., serum levels of glucose, insulin and C-peptide and plasma levels of glucagon, were evaluated on Days 5, 10 and 15: pre-dose (within 60 min prior to glucose intake) and at 0.5, 1, 1.5, 2, 2.5, 3 and 4 h post-glucose intake. Urine was collected for urinary glucose excretion on Days 5, 10 and 15: pre-dose (for bladder emptying only, no pre-dose glucose measurement), and over a series of intervals (0-2 h, 2-4 h, 4-6 h, 6-8 h, 8-12 h and 12-24 h post-dose).

Series [2] has the same test system. Briefly: Oral glucose tolerance test (OGTT): serum C-peptide pharmacodynamic response. Conditions: baseline corrected, after 75-gram OGTT, Days 5, 10, 15. Type of series: in vivo, human. How it is done: as §1, §2
The conditions of series [3]: in vivo.
Procedure: This phase I study accessed the pharmacokinetic interaction between dorzagliatin and empagliflozin in T2DM subjects.
Sixteen eligible subjects were enrolled and 15 of them completed the study.
All subjects received: (i) empagliflozin (25 mg, QD) on Days 1-5; and empagliflozin was taken 60 min prior to meals (except on Day 5, when it was administered 30 min before glucose intake); (ii) empagliflozin (25 mg, QD) and dorzagliatin (75 mg, BID) on Days 6-10 (only the morning dose on Day 10); and empagliflozin and dorzagliatin were taken 60 min prior to meals (except on Day 10, when they were administered 30 min before glucose intake); or (iii) dorzagliatin 75 mg BID on Days 11-15 (only the morning dose on Day 15); and dorzagliatin was taken 60 min prior to meals (except on Day 15, when it was administered 30 min before glucose intake).
Blood samples for the determination of dorzagliatin and empagliflozin concentrations and corresponding pharmacokinetic (PK) analysis were collected at the following time points on Days 5, 10 and 15: pre-dose (within 30 min prior to drug dosing) and at 0.25, 0.5, 1, 1.5, 2, 3, 4, 6, 8, 10, 12, 18 and 24 h post-dose. […]
The plasma concentration-time data for dorzagliatin and empagliflozin were analyzed using non-compartmental methods to calculate PK parameters.

Take `OC[C@H]1O[C@@H](c2ccc(Cl)c(Cc3ccc(OC4CCOC4)cc3)c2)[C@H](O)[C@@H](O)[C@@H]1O` (stereo in doubt) [Empagliflozin, (2S,3R,4R,5S,6R)-2-[4-chloro-3({4-[(3S)-oxolan-3-yloxy]phenyl}methyl)phenyl]-6-(hydroxymethyl)oxane-3,4,5-triol]: in series [1], the “Glucose response AUEC0-4 h, mean” value turned out to be 452 mg·h/dL; the “Glucose response CEav, mean” value came out at 113 mg/dL; the “Glucose response CEmax, mean” value is on record as 199 mg/dL. In series [2], this molecule registered a C-peptide response AUEC0-4 h, mean of 11 ng·h/mL; a C-peptide response CEav, mean of 2.7 ng/mL; a C-peptide response CEmax, mean of 4.7 ng/mL. Moreover, in series [3], the “effect of empagliflozin on dorzagliatin PK parameters (drug-drug interaction)” value is listed as “did not have a significant effect on dorzagliatin PK parameters”.

For the molecule `CC(C)C[C@@H](C(=O)Nc1ccn(C[C@@H](O)CO)n1)N1CC(Oc2ccccc2Cl)=CC1=O` [Dorzagliatin, (S)-2-(4-(2-chlorophenoxy)-2-oxo-2,5-dihydro-1H-pyrrol-1-yl)-N-(1-((R)-2,3-dihydroxypropyl)-1H-pyrazol-3-yl)-4-methylpentanamide], in series [1], the “Glucose response AUEC0-4 h, mean” value is 364 mg·h/dL; the “Glucose response CEav, mean” value is listed as 91 mg/dL; the “Glucose response CEmax, mean” value came out at 163 mg/dL. In series [2], this molecule displayed a C-peptide response AUEC0-4 h, mean of 13 ng·h/mL; a C-peptide response CEav, mean of 3.2 ng/mL; a C-peptide response CEmax, mean of 5.5 ng/mL. Moreover, the “effect of dorzagliatin on empagliflozin PK parameters (drug-drug interaction)” value in series [3] was “did not have a significant effect on empagliflozin PK parameters”.
